Data as given in ChEMBL document CHEMBL1201862, “PubChem BioAssay data set” (2004).
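Step 1: Grow cells in 96-well plates. Step 2: Expose to compound for 48 hours at 5 concentrations. Step 3: Interpolate endpoints linearly; if unreached, use highest concentration. GI50 = concentration required for 50% inhibition of growth.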 The source made the active and inactive calls. No stated cut-off is given here; in the data, active = GI50 up to about 1.1 µM and inactive = higher.

Columns and labels:
Experiment in all cases: DTP human tumour cell line panel, 48 h
786-0 = system: 786-0
A498 = system: A498
A549 = system: A549
ACHN = system: ACHN
BT-549 = system: BT-549
CAKI-1 = system: CAKI-1
CCRF-CEM = system: CCRF-CEM
COLO 205 = system: COLO 205
DU-145 = system: DU-145
EKVX = system: EKVX
HCC 2998 = system: HCC 2998
HCT-116 = system: HCT-116
HCT-15 = system: HCT-15
HL-60 = system: HL-60
HOP-62 = system: HOP-62
HOP-92 = system: HOP-92
HT-29 = system: HT-29
Hs-578T = system: Hs-578T
IGROV-1 = system: IGROV-1
K562 = system: K562
KM12 = system: KM12
LOX IMVI = system: LOX IMVI
M14 = system: M14
MCF7 = system: MCF7
MDA-MB-231 = system: MDA-MB-231
MDA-MB-435 = system: MDA-MB-435
MDA-N = system: MDA-N
MOLT-4 = system: MOLT-4
Malme-3M = system: Malme-3M
NCI-H226 = system: NCI-H226
NCI-H23 = system: NCI-H23
NCI-H460 = system: NCI-H460
NCI-H522 = system: NCI-H522
OVCAR-3 = system: OVCAR-3
OVCAR-4 = system: OVCAR-4
OVCAR-5 = system: OVCAR-5
OVCAR-8 = system: OVCAR-8
PC-3 = system: PC-3
RPMI-8226 = system: RPMI-8226
RXF 393 = system: RXF 393
SF-268 = system: SF-268
SF-295 = system: SF-295
SF-539 = system: SF-539
SK-MEL-28 = system: SK-MEL-28
SK-MEL-2 = system: SK-MEL-2
SK-MEL-5 = system: SK-MEL-5
SK-OV-3 = system: SK-OV-3
SN12C = system: SN12C
SNB-19 = system: SNB-19
SNB-75 = system: SNB-75
SR = system: SR
SW-620 = system: SW-620
T47D = system: T47D
TK-10 = system: TK-10
U-251 = system: U-251
UACC-257 = system: UACC-257
UACC-62 = system: UACC-62
UO-31 = system: UO-31
NCI/ADR-RES = system: NCI/ADR-RES

Measured: GI50

Cc1cc(O)c(O)c(Oc2cc(C)cc(O)c2O)c1
inactive: 786-0 18.2 µM | A498 > 100 µM | A549 73.1 µM | ACHN 11.6 µM | BT-549 20.1 µM | CAKI-1 32 µM | CCRF-CEM 2.37 µM | COLO 205 20.1 µM | DU-145 23.3 µM | EKVX 16 µM | HCC 2998 32 µM | HCT-116 14.5 µM | HL-60 1.99 µM | HOP-62 67.6 µM | HOP-92 16.6 µM | HT-29 20.8 µM | Hs-578T 48.4 µM | IGROV-1 12.4 µM | K562 15.1 µM | KM12 22 µM | LOX IMVI 4.57 µM | M14 14.3 µM | MCF7 13.1 µM | MDA-MB-231 20.3 µM | MDA-MB-435 12.7 µM | MDA-N 18.7 µM | MOLT-4 10 µM | Malme-3M > 10 µM | NCI-H226 18.4 µM | NCI-H23 25.6 µM | NCI-H460 11.1 µM | NCI-H522 15 µM | OVCAR-3 4.48 µM | OVCAR-4 13.4 µM | OVCAR-5 34.2 µM | OVCAR-8 16.2 µM | PC-3 21.9 µM | RPMI-8226 31.1 µM | RXF 393 24.5 µM | SF-268 17.8 µM | SF-295 14.8 µM | SF-539 23.3 µM | SK-MEL-28 32.2 µM | SK-MEL-2 21.5 µM | SK-MEL-5 33.9 µM | SK-OV-3 36.8 µM | SN12C 13.2 µM | SNB-19 35.9 µM | SNB-75 75.7 µM | SR 6.7 µM | SW-620 16.9 µM | T47D 26.7 µM | TK-10 17.1 µM | U-251 9.79 µM | UACC-257 6.07 µM | UACC-62 11.7 µM | UO-31 18.5 µM
9.14 µM: HCT-15

COc1ccc2c(c1)CN1C(=N2)CSC1c1c(Cl)cccc1[N+](=O)[O-] (stereo not drawn)
inactive: 786-0 25.9 µM | A549 31.9 µM | ACHN 30.5 µM | BT-549 14.9 µM | CAKI-1 23.1 µM | COLO 205 11.4 µM | EKVX 25.4 µM | HCC 2998 22.7 µM | HCT-116 15.6 µM | HL-60 11.5 µM | HOP-62 34.3 µM | HOP-92 16.7 µM | HT-29 17.9 µM | Hs-578T 24.7 µM | IGROV-1 31 µM | K562 13.6 µM | KM12 19.5 µM | LOX IMVI 18.5 µM | M14 18.3 µM | MCF7 14.4 µM | MDA-MB-231 16.4 µM | MDA-MB-435 20.1 µM | MDA-N 18.5 µM | MOLT-4 12.6 µM | Malme-3M 30.2 µM | NCI-H226 11.9 µM | NCI-H23 15.8 µM | NCI-H460 14.7 µM | NCI-H522 23.7 µM | NCI/ADR-RES 15.1 µM | OVCAR-4 31.5 µM | OVCAR-5 26.4 µM | OVCAR-8 30.1 µM | PC-3 23.8 µM | RPMI-8226 15.4 µM | RXF 393 22.5 µM | SF-268 20 µM | SF-295 21.8 µM | SF-539 15.1 µM | SK-MEL-28 18.5 µM | SK-MEL-2 17.5 µM | SK-MEL-5 12.8 µM | SK-OV-3 39.7 µM | SN12C 17.5 µM | SNB-19 29.9 µM | SNB-75 27.8 µM | SR 15.6 µM | SW-620 15.6 µM | T47D 31 µM | TK-10 28.2 µM | U-251 18.7 µM | UACC-257 17.2 µM | UACC-62 20 µM | UO-31 21.3 µM
16.6 µM: HCT-15
